Like-named read-outs stand apart in the source and are kept apart here. Where no end group is shown, it is not given here. MBP = maltose binding protein (fusion tag)

Here are results for 6 substances from patent US20140329706A1, “AFFINITY TAGS, AND RELATED AFFINITY LIGANDS, ENGINEERED PROTEINS, MODIFIED SUPPORTS, COMPOSITIONS, METHODS AND SYSTEMS” (CALIFORNIA INSTITUTE OF TECHNOLOGY, priority 2013, published 2014).

The target of data set [1] is T1, PSD-95 PDZ2 coupled to a solid support (Mus musculus, UniProt Q62108).
T1 construct: pJExpress414 plasmids containing a gene coding for the PDZ2 domain of PSD-95; made in house; host or cells: E. coli BL21(DE3)
The data set can be described thus: Binding of NR2B tail truncation fusion proteins to PSD-95 PDZ2 affinity resin. As to conditions: elution with SIESDV peptide, SDS-PAGE. The protocol:
For the experiment, fusion proteins containing THX fused to varying numbers of residues from the NR2B Tail ([…]) were expressed in BL21(DE3) E. coli cells. Single colonies of BL21(DE3) cells harboring pJExpress414 plasmids containing genes of interest were grown overnight at 37° C. in 5 ml of lysogeny broth (LB) (Cat. No. L9110, Teknova, Hollister, Calif.) supplemented with 100 ug/ml carbenicillin. Overnight cultures were diluted 1:500 into Overnight Express Instant Terrific Broth (TB) Media (Cat. No. 71491, EMD Millipore, Billerica, Mass.), grown for 16 h at 37° C., pelleted by centrifugation, and flash frozen in liquid nitrogen. Bacterial cell pellets (0.4-2.5 grams) containing fusions of THX fused to varying numbers of residues from the NR2B Tail ([…]) were resuspended in 5 ml/g cell paste of BugBuster Lysis Buffer [1× BugBuster (Cat. No. 70921, EMD Millipore, Billerica Mass.), 50 mM HEPES, 150 mM NaCl, 5 mM TCEP, 0.5 mM EDTA, 10 mM MgCl2, 2 mM PMSF, Complete Protease Inhibitor supplemented with 25 U/ml Benzonase and 10 U/ml ReadyLyse]. Resuspended cells were incubated on a shaking platform at low speed for 20 minutes at room temperature before the lysate was clarified by centrifugation at 16,000×g for 30 min at 4° C. […] Eluted protein was analyzed on 4-12% bis-tris SDS-PAGE gels and proteins were detected by Gel Code Blue staining.
For the experiment, fusion proteins containing MBP fused to varying numbers of residues from the NR2B Tail ([…]) were expressed in BL21(DE3) E. coli cells. […] Bacterial cell pellets (0.4-2.5 grams) containing fusions of MBP fused to varying numbers of residues from the NR2B Tail ([…]) were resuspended in 5 ml/g cell paste of BugBuster Lysis Buffer [1× BugBuster (Cat. No. 70921, EMD Millipore, Billerica Mass.), 50 mM HEPES, 150 mM NaCl, 5 mM TCEP, 0.5 mM EDTA, 10 mM MgCl2, 2 mM PMSF, Complete Protease Inhibitor supplemented with 25 U/ml Benzonase and 10 U/ml ReadyLyse]. […]

The conditions of data set [2]: refs (54-58); read-out: approximate KD; cited from earlier work.
The subject of data set [3] is NR2B C-terminal PDZ domain binding peptide, 1× nNOS PDZ-β-hairpin domains or 2× nNOS PDZ-β-hairpin domains. The data set is described as follows: Binding of control MBP or GST to peptide and nNOS PDZ affinity resins. The following applies: expressed alone without a PDZ domain. The source says: In order to test the hypothesis, PSD-95 PDZ2 domains (e.g. Type C PDZ affinity tags) were fused N- or C-terminally to MBP, or internally between an MBP and GST proteins and purified using affinity chromatography resins comprised of NR2B C-terminal PDZ domain binding peptide (H3N+-[…]-COO—), 1× nNOS PDZ-β-hairpin domains or 2× nNOS PDZ-β-hairpin domains. […] Tags performed equally when fused internally or C-terminally, however N-terminal tag fusions were purified in slightly lower yield.
For the experiment, MBP, GST and PSD-95 PDZ2 domains protein or fusion proteins consisting of MBP and/or GST fused in frame with N-terminal, internal or C-terminal PSD-95 PDZ2 domains (e.g. Type C PDZ affinity tags) were expressed in BL21(DE3) E. coli cells. […] Bacterial cell pellets (0.4-2.5 grams) containing the proteins of interest were resuspended in 5 ml/g cell paste of BugBuster Lysis Buffer [1× BugBuster (Cat. No. 70921, EMD Millipore, Billerica Mass.), 50 mM HEPES, 150 mM NaCl, 5 mM TCEP, 0.5 mM EDTA, 10 mM MgCl2, 2 mM PMSF, Complete Protease Inhibitor supplemented with 25 U/ml Benzonase and 10 U/ml ReadyLyse]. […] Eluted protein was analyzed on 4-12% bis-tris SDS-PAGE gels and proteins were detected by Gel Code Blue staining.

The conditions of data set [4]: untagged LacZ, Wallenfels & Malhotra, cited from earlier work.
The target of data set [5] is PDZ2 domain of PSD-95 (Rattus norvegicus, UniProt P31016). As to conditions: cited from earlier work.
In data set [6] the target is PDZ1 domain of PSD-95 (Rattus norvegicus, UniProt P31016). As to conditions: cited from earlier work.

T1 sequence (Q62108 160-246 limits assumed): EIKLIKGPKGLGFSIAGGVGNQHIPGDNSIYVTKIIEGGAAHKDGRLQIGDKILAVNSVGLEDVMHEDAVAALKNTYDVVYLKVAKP

Take “GST-EKLSSIESD: GST fused to NR2B tail sequence lacking the C-terminal valine ({GST}-EKLSSIESD)”: the “binding to and elution from PSD-95 PDZ2 matrix” value (from here on “binding to and elution”) in data set [1] is listed as “abolished binding to the column”.

With “GST: glutathione-S-transferase, known affinity tag and control fusion partner”, the Kd in data set [2] is 40000 to 170000 nM. The “binding to affinity resins” value in data set [3] is reported as “did not bind to any of the three affinity resins”. IESDV: the “binding to and elution” value in data set [1] is “required for effective binding to and elution from the PDZ2 PSD-95 matrix”.

For the substance “LacZ: untagged β-Galactosidase, literature values”, the Michaelis-Menten constant (Km) in data set [4] (ONPG) was 161 µM. For the same substance, the “VMAX (umol ONPG/mg protein*min)” value in data set [4] is on record as 178* umol ONPG/mg protein*min. Take “MBP-EKLSSIESD: MBP fused to NR2B tail sequence lacking the C-terminal valine ({MBP}-EKLSSIESD)”: the “binding to and elution” value in data set [1] is “abolished binding to the column”. For the substance SIESDV, the Kd in data set [5] (ref (49)) is 700 nM; in data set [5] (ref (134)), 1300 nM; in data set [6] (ref (49)), 2300 nM; in data set [6] (ref (134)), 9700 nM.

For orientation: Kd means the equilibrium constant for the complex coming apart. As usually defined, the Km is the substrate concentration at which the rate is half of its maximum.
